Read-outs that look alike come from different tables or passages of the source.
Columns and labels:
CaMKIIδ = CaMKIIδ (Homo sapiens, UniProt Q13557); details: cited from earlier work
[1] = test system: ovalbumin-sensitized C6B2 mice (asthma model); experiment: Ovalbumin-sensitized mouse asthma model, intranasal KN-93; format: in vivo; details: for airway resistance (Flexivent) on Methacholine challenge: KN93 100 mM intranasal during ovalbumin inhalations, at 50 and 100 μg/ml Methacholine, p<0.05, vs untreated; for Bronchoalveolar lavage eosinophils: KN93 intranasal, compared with untreated control mice
Procedure: (§1) FIG. 4. Effects of inhaled KN-93 on asthma. (A) C6B2 mice were sensitized by two i.p. injections of ovalbumin, followed by three 30 min inhalations of ovalbumin in the presence or absence of the CaMKII inhibitor KN93 (100 μM) intranasal. Airway reactivity was determined by Methacholine challenge using the Flexivent-measured airway resistance as the readout. (B) Bronchoalveolar lavage eosinophils in mice treated with KN 93 compared with untreated control mice.
In order to test the concept that CaMKII inhibition can reduce asthma symptoms, a validated asthma model was utilized. This model induces airway inflammation and hyper-reactivity by intra-peritoneal sensitization and inhalational challenge with the experimental allergen, ovalbumin. The “asthmatic” mice are then characterized by a graded inhalational challenge protocol using aerosolized methacholine. (See Jain et al., 2003). This approach is similar to that used in humans with clinical asthma.
as §1, with “C6B2” for “FIG. 4. Effects of inhaled KN-93 on asthma. (A) C6B2”, “mM)” for “μM)”, “[…] (* p<0.05, n=4 per group) (FIG. 4A).” for “(B)”, “eosinophils (a measure of allergic airway inflammation) were reduced” for “eosinophils”, “mice (FIG. 4B).” for “mice.”

CaMKIIδ, sequence (Q13557 whole entry): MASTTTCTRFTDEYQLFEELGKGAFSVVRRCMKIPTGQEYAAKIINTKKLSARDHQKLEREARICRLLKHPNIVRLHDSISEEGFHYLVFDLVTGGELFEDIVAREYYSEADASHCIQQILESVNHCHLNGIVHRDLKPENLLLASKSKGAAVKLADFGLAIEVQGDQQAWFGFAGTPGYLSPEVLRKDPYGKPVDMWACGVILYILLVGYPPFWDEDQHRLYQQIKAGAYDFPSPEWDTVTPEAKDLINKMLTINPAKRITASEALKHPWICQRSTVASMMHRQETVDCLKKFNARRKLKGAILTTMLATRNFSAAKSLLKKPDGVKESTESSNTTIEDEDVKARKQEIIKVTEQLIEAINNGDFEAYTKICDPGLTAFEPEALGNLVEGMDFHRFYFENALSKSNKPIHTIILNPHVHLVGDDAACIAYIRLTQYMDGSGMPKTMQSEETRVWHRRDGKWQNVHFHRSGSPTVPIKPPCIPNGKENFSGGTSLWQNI

SMILES | IC50 (CaMKIIδ) [µM] | also measured
NCCCn1cc(C2=C(c3ccc4ccccc4n3)C(=O)NC2=O)c2ccccc21 [Compound 14f] | > 20 | 
CC(C)(C)OC(=O)NCCCn1cc(C2=C(c3csc4ccccc34)C(=O)NC2=O)c2ccccc21 [Compound 13b] | > 20 | 
NCCCn1cc(C2=C(c3csc4ccccc34)C(=O)NC2=O)c2ccccc21 [Compound 2] |  | IC50 (CaMKIIδ; old, read-out: IC50 (μM) old): < 0.039 µM
COc1ccc(S(=O)(=O)N(CCO)c2ccccc2CN(C)C/C=C/c2ccc(Cl)cc2)cc1 [KN-93] |  | airway resistance (Flexivent) on Methacholine challenge [1]: reduced airway resistance measurements; airway resistance (Flexivent) on Methacholine challenge ([1]; listed as KN93): significant reduction; Bronchoalveolar lavage eosinophils [1]: reduced eosinophils; Bronchoalveolar lavage eosinophils ([1]; listed as KN 93): reduced
CC(C)(C)OC(=O)NCCCn1cc(C2=C(c3cccs3)C(=O)NC2=O)c2ccccc21 [Compound 13l] | > 20 | 
CC(C)(C)OC(=O)NCCCn1cc(C2=C(c3ccccc3)C(=O)NC2=O)c2ccccc21 [Compound 13g] | > 20 | 
CN1C(=O)C(c2c[nH]c3ccc(Br)cc23)=C(c2cn(CCCN)c3ccccc23)C1=O [Compound 16t] | > 20 | 

Reference: patent publication US8440656B2, “Methods of treating pulmonary diseases and disorders by modulating calcium/calmodulin dependent protein kinase II activity” (University of Iowa Research Foundation, priority 2009, dated 2013)
